# Measured values taken from US20240307309A1, “ZWITTERIONIC LIPID NANOPARTICLE COMPOSITIONS, AND METHODS OF USE” (CORNELL UNIVERSITY, priority 2020, published 2024).
# Assay: Accelerated blood clearance (ABC) effect, hEPO serum PK after multiple LNP injections (ELISA)
# Format: in vivo, C57BL/6J mice
# Conditions: PCB-LNP containing the lipid; intravenous, 5 μg mRNA; third injection; compared to MC3 formulations
# Method: Accelerated blood clearance (ABC) effect has been reported in cases where LNPs were injected multiple times with rapid clearance of LNPs observed in the subsequent injections. […] In this example, PCB-LNP containing ZW-B-CBn from Example 7 were used to study the ABC effect of LNPs. MC3-based PEG-LNP from Example 2 was used as a control.
# For in vivo pharmacokinetic (PK) study, male C57BL/6J mice aged 3-4 weeks in groups of three were administered intravenously with mRNA-LNP at a dosage of 5 μg of mRNA. Two different injection cohorts were performed. (FIG. 15a) In cohort 1, only one dose of hEPO-mRNA (human erythropoietin mRNA) was given. In cohort 2, Fluc-mRNA ([…]) was dosed for the first two injections, and hEPO-mRNA for the last injection. (FIG. 15a) Cohort 2 was designed in a way to eliminate anti-hEPO immune response induced from first two injections, and thereby the PK profile of hEPO in the third injection is mainly indicating the ABC effect due to LNP components. To determine the PK profile of hEPO, mice sera were collected at 6-hour, 24-hour post-injection, and analyzed using ELISA (DuoSet, hEPO ELISA kit, R&D).
row,"ABC effect (hEPO serum concentration, injection cohort 2 versus cohort 1)",SMILES
1,less ABC effect,"CCCCCCCCCOC(=O)CCCCCCCN(CCCCCCCC(=O)OC(CCCCCCCC)CCCCCCCCC)CC(=O)O (centres unmarked) [ZW-B-CB1, N-(8-(nonyloxy)-8-oxooctyl)-N-(8-(octadecan-9-yloxy)-8-oxooctyl)glycine]"
2,less ABC effect,"CCCCCCCCCOC(=O)CCCCCCCN(CCCCCCCC(=O)OC(CCCCCCCC)CCCCCCCCC)CCC(=O)O (centres unmarked) [ZW-B-CB2, 3-((8-(nonyloxy)-8-oxooctyl)(8-(octadecan-9-yloxy)-8-oxooctyl)amino)propanoic acid]"
